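Cells were grown in 96-well plates and exposed to each compound for 48 hours at five concentrations; endpoints were interpolated linearly between bracketing concentrations, or set to the highest concentration if not reached. At the TGI there is no net growth.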
Legend:
Assay in all cases: DTP human tumour cell line panel, 48 h
786-0 renal = system: 786-0 renal
A498 renal = system: A498 renal
A549 NSCLC = system: A549 NSCLC
ACHN renal = system: ACHN renal
BT-549 breast = system: BT-549 breast
CAKI-1 renal = system: CAKI-1 renal
CCRF-CEM leukemia = system: CCRF-CEM leukemia
COLO 205 colon = system: COLO 205 colon
DU-145 prostate = system: DU-145 prostate
EKVX NSCLC = system: EKVX NSCLC
HCC-2998 colon = system: HCC-2998 colon
HCT-116 colon = system: HCT-116 colon
HCT-15 colon = system: HCT-15 colon
HL-60(TB) leukemia = system: HL-60(TB) leukemia
HOP-62 NSCLC = system: HOP-62 NSCLC
HOP-92 NSCLC = system: HOP-92 NSCLC
HS 578T breast = system: HS 578T breast
K-562 leukemia = system: K-562 leukemia
KM12 colon = system: KM12 colon
LOX IMVI melanoma = system: LOX IMVI melanoma
M14 melanoma = system: M14 melanoma
MALME-3M melanoma = system: MALME-3M melanoma
MCF7 breast = system: MCF7 breast
MDA-MB-231 breast = system: MDA-MB-231 breast
MDA-MB-435 = system: MDA-MB-435
MDA-N = system: MDA-N
MOLT-4 leukemia = system: MOLT-4 leukemia
NCI-H226 lung = system: NCI-H226 lung
NCI-H23 lung = system: NCI-H23 lung
NCI-H460 lung = system: NCI-H460 lung
NCI-H522 lung = system: NCI-H522 lung
NCI/ADR-RES ovarian = system: NCI/ADR-RES ovarian
OVCAR-3 ovarian = system: OVCAR-3 ovarian
OVCAR-4 ovarian = system: OVCAR-4 ovarian
OVCAR-5 ovarian = system: OVCAR-5 ovarian
OVCAR-8 ovarian = system: OVCAR-8 ovarian
RPMI-8226 leukemia = system: RPMI-8226 leukemia
RXF 393 renal = system: RXF 393 renal
SF-268 CNS = system: SF-268 CNS
SF-295 CNS = system: SF-295 CNS
SF-539 CNS = system: SF-539 CNS
SK-MEL-2 melanoma = system: SK-MEL-2 melanoma
SK-MEL-28 melanoma = system: SK-MEL-28 melanoma
SK-MEL-5 melanoma = system: SK-MEL-5 melanoma
SK-OV-3 ovarian = system: SK-OV-3 ovarian
SN12C renal = system: SN12C renal
SNB-19 CNS = system: SNB-19 CNS
SR leukemia = system: SR leukemia
SW-620 colon = system: SW-620 colon
T-47D breast = system: T-47D breast
TK-10 renal = system: TK-10 renal
U251 CNS = system: U251 CNS
UACC-257 melanoma = system: UACC-257 melanoma
UACC-62 melanoma = system: UACC-62 melanoma
UO-31 renal = system: UO-31 renal
HT29 colon = system: HT29 colon
IGROV1 ovarian = system: IGROV1 ovarian
PC-3 prostate = system: PC-3 prostate
SNB-75 CNS = system: SNB-75 CNS

## COc1cc(/C=C2/SC(c3ccccc3)N(c3ccccc3Cl)C2=O)cc(OC)c1OC (stereo unspecified)
786-0 renal
  TGI: > 100 µM
A498 renal
  TGI: > 100 µM
A549 NSCLC
  TGI: > 100 µM
ACHN renal
  TGI: > 100 µM
BT-549 breast
  TGI: 85.1 µM
CAKI-1 renal
  TGI: > 100 µM
CCRF-CEM leukemia
  TGI: 43.4 µM
COLO 205 colon
  TGI: 95.5 µM
DU-145 prostate
  TGI: > 100 µM
EKVX NSCLC
  TGI: > 100 µM
HCC-2998 colon
  TGI: > 100 µM
HCT-116 colon
  TGI: 67.7 µM
HCT-15 colon
  TGI: > 100 µM
HL-60(TB) leukemia
  TGI: > 100 µM
HOP-62 NSCLC
  TGI: > 100 µM
HOP-92 NSCLC
  TGI: > 100 µM
HS 578T breast
  TGI: > 100 µM
K-562 leukemia
  TGI: > 100 µM
KM12 colon
  TGI: > 100 µM
LOX IMVI melanoma
  TGI: 41.7 µM
M14 melanoma
  TGI: > 100 µM
MALME-3M melanoma
  TGI: 64.7 µM
MCF7 breast
  TGI: > 100 µM
MDA-MB-231 breast
  TGI: > 100 µM
MDA-MB-435
  TGI: > 100 µM
MDA-N
  TGI: 69.7 µM
MOLT-4 leukemia
  TGI: 68.2 µM
NCI-H226 lung
  TGI: > 100 µM
NCI-H23 lung
  TGI: 81.7 µM
NCI-H460 lung
  TGI: > 100 µM
NCI-H522 lung
  TGI: 32.3 µM
NCI/ADR-RES ovarian
  TGI: 85.3 µM
OVCAR-3 ovarian
  TGI: > 100 µM
OVCAR-4 ovarian
  TGI: > 100 µM
OVCAR-5 ovarian
  TGI: > 100 µM
OVCAR-8 ovarian
  TGI: > 100 µM
RPMI-8226 leukemia
  TGI: 52.3 µM
RXF 393 renal
  TGI: 70.2 µM
SF-268 CNS
  TGI: > 100 µM
SF-295 CNS
  TGI: > 100 µM
SF-539 CNS
  TGI: 36.6 µM
SK-MEL-2 melanoma
  TGI: > 100 µM
SK-MEL-28 melanoma
  TGI: > 100 µM
SK-MEL-5 melanoma
  TGI: 33.6 µM
SK-OV-3 ovarian
  TGI: 63.4 µM
SN12C renal
  TGI: 46.6 µM
SNB-19 CNS
  TGI: > 100 µM
SR leukemia
  TGI: 58.9 µM
SW-620 colon
  TGI: > 100 µM
T-47D breast
  TGI: > 100 µM
TK-10 renal
  TGI: > 100 µM
U251 CNS
  TGI: 67.8 µM
UACC-257 melanoma
  TGI: > 100 µM
UACC-62 melanoma
  TGI: > 100 µM
UO-31 renal
  TGI: > 100 µM

## CC(=N)OC1CC2CCC1(C)C2(C)C (stereo unspecified)
786-0 renal
  TGI: > 100 µM
A498 renal
  TGI: > 100 µM
A549 NSCLC
  TGI: > 100 µM
ACHN renal
  TGI: > 100 µM
BT-549 breast
  TGI: > 100 µM
CAKI-1 renal
  TGI: > 100 µM
CCRF-CEM leukemia
  TGI: > 100 µM
COLO 205 colon
  TGI: > 100 µM
DU-145 prostate
  TGI: > 100 µM
EKVX NSCLC
  TGI: > 100 µM
HCC-2998 colon
  TGI: > 100 µM
HCT-116 colon
  TGI: > 100 µM
HCT-15 colon
  TGI: > 100 µM
HL-60(TB) leukemia
  TGI: > 100 µM
HOP-62 NSCLC
  TGI: > 100 µM
HOP-92 NSCLC
  TGI: > 100 µM
HS 578T breast
  TGI: > 100 µM
HT29 colon
  TGI: > 100 µM
IGROV1 ovarian
  TGI: > 100 µM
K-562 leukemia
  TGI: > 100 µM
KM12 colon
  TGI: > 100 µM
LOX IMVI melanoma
  TGI: > 100 µM
M14 melanoma
  TGI: > 100 µM
MALME-3M melanoma
  TGI: > 100 µM
MCF7 breast
  TGI: > 100 µM
MDA-MB-231 breast
  TGI: > 100 µM
MDA-MB-435
  TGI: > 100 µM
MDA-N
  TGI: > 100 µM
MOLT-4 leukemia
  TGI: > 100 µM
NCI-H226 lung
  TGI: > 100 µM
NCI-H23 lung
  TGI: > 100 µM
NCI-H460 lung
  TGI: > 100 µM
NCI-H522 lung
  TGI: > 100 µM
OVCAR-3 ovarian
  TGI: > 100 µM
OVCAR-4 ovarian
  TGI: > 100 µM
OVCAR-5 ovarian
  TGI: > 100 µM
OVCAR-8 ovarian
  TGI: > 100 µM
PC-3 prostate
  TGI: > 100 µM
RPMI-8226 leukemia
  TGI: > 100 µM
RXF 393 renal
  TGI: > 100 µM
SF-268 CNS
  TGI: > 100 µM
SF-295 CNS
  TGI: > 100 µM
SF-539 CNS
  TGI: > 100 µM
SK-MEL-28 melanoma
  TGI: > 100 µM
SK-MEL-5 melanoma
  TGI: > 100 µM
SK-OV-3 ovarian
  TGI: > 100 µM
SN12C renal
  TGI: > 100 µM
SNB-75 CNS
  TGI: > 100 µM
SR leukemia
  TGI: > 100 µM
SW-620 colon
  TGI: > 100 µM
T-47D breast
  TGI: > 100 µM
TK-10 renal
  TGI: > 100 µM
U251 CNS
  TGI: > 100 µM
UACC-257 melanoma
  TGI: > 100 µM
UACC-62 melanoma
  TGI: > 100 µM
UO-31 renal
  TGI: > 100 µM
